Measured values reported in patent publication US20090214498A1, “ANTIMICROBIAL PEPTIDES AND BACTERIAL STRAINS THAT PRODUCE THEM” (TEAGASC- NATIONAL DIARY PRODUCTS RESEARCH CENTRE, priority 2005, published 2009).
Values after ≈ are worked out from the molar mass of the structure shown. Values joined by “and” are separate entries in the source; they are usually repeats but may differ in a detail not shown here. Equal values may be shown once. Residues, ends and D or L forms follow the SMILES beside them.

Columns and labels:
[1] = system: E. coli DPC6053; test: 96-well plate assay (OD600), MIC; type: cell-based, Escherichia coli; settings: for minimum inhibitory concentration (MIC): E. coli DPC6053, 6 h at 37° C., OD600
Method: (§1) Preliminary characterisation of the antibacterial activity of peptides and fractions synthesised involved measurement of growth inhibition in a 96-well plate assay (1, 10) and utilisation of an agar diffusion method (16,39). […] A control without bacteria (sterility control) was also included. The plates were incubated for 6 h at 37° C. and culture growth monitored hourly. Minimum inhibitory concentrations (MIC's) were taken as the lowest concentration without visible growth, measured by recording the OD600, in a micro-titre plate reader. A well diffusion assay (16, 40) was used to detect antibacterial activity of purified and chemically synthesised peptides. These assays were performed in either Brain Heart Infusion (BHI), Luria Bertani (LB) or Nutrient agar (NA) seeded with 1 ml of an overnight culture of the indicator strains E. coli DPC6053, L. innocua DPC3306, E. sakazakii 5920 (ATCC12868) or E. sakazakii 8272 (NCTC8155) respectively. Wells, 4.6 mm in diameter, were cut into these agar plates, and 30 μl (0.162 mg/ml) of the peptide fraction placed in each well. Plates were stored at 4° C. for 4 h to permit radial diffusion of the peptide, incubated at 30° C. anaerobically or 37° C. aerobically for 24 h, and examined for zones of inhibition. The sensitivity of a strain to the peptides was scored according to the diameter of the zone of inhibition surrounding the well. The experiments were performed in triplicate and mean zone size calculated.

[2] = system: E. coli DPC6053; test: agar well diffusion assay, E. coli DPC6053; type: cell-based, Escherichia coli JM109; parameters: key to zone of inhibition (inhibitory spectrum): +++: Zone of inhibition >2.0 cm in diameter produced.; ++: Zone of inhibition >1.5 cm in diameter produced.; +: Zone of inhibition >1.0 cm in diameter produced.; −: No zone detected; settings: for zone of inhibition (inhibitory spectrum): Escherichia coli JM109 DPC6053, pure synthesised peptide; for concentration at which the indicator organism was inhibited: agar well-diffusion assay
Method: as §1

[3] = system: E. coli O157:H7 DPC6054; test: agar well diffusion assay, E. coli O157:H7 DPC6054; type: cell-based, Escherichia coli; parameters: key to zone of inhibition (inhibitory spectrum): +++: Zone of inhibition >2.0 cm in diameter produced.; ++: Zone of inhibition >1.5 cm in diameter produced.; +: Zone of inhibition >1.0 cm in diameter produced.; −: No zone detected; settings: for zone of inhibition (inhibitory spectrum): E. coli O157:H7 DPC6054, pure synthesised peptide
[4] = system: E. coli O157:H7 DPC6055; test: agar well diffusion assay, E. coli O157:H7 DPC6055; type: cell-based, Escherichia coli; parameters: key to zone of inhibition (inhibitory spectrum): +++: Zone of inhibition >2.0 cm in diameter produced.; ++: Zone of inhibition >1.5 cm in diameter produced.; +: Zone of inhibition >1.0 cm in diameter produced.; −: No zone detected; settings: for zone of inhibition (inhibitory spectrum): E. coli O157:H7 DPC6055, pure synthesised peptide
[5] = system: E. sakazakii 5920 (ATCC12868); test: agar well diffusion assay, E. sakazakii 5920; type: cell-based, Enterobacter sakazakii; parameters: key to zone of inhibition (inhibitory spectrum): +++: Zone of inhibition >2.0 cm in diameter produced.; ++: Zone of inhibition >1.5 cm in diameter produced.; +: Zone of inhibition >1.0 cm in diameter produced.; −: No zone detected; settings: for zone of inhibition (inhibitory spectrum): Enterobacter sakazakii ATCC12868 DPC6090, pure synthesised peptide
Method: as §1

[6] = system: E. sakazakii 8272 (NCTC8155); test: agar well diffusion assay, E. sakazakii 8272; type: cell-based, Enterobacter sakazakii; parameters: key to zone of inhibition (inhibitory spectrum): +++: Zone of inhibition >2.0 cm in diameter produced.; ++: Zone of inhibition >1.5 cm in diameter produced.; +: Zone of inhibition >1.0 cm in diameter produced.; −: No zone detected; settings: for zone of inhibition (inhibitory spectrum): E. sakazakii NCTC8155 DPC6091, pure synthesised peptide
Method: as §1

[7] = system: L. innocua DPC3306; test: agar well diffusion assay, L. innocua DPC3306; type: cell-based; settings: Listeria innocua DPC3306; for zone of inhibition (inhibitory spectrum): pure synthesised peptide
Method: as §1

[8] = system: Staphylococcus aureus DPC5246; test: agar well diffusion assay, S. aureus DPC5246; type: cell-based; parameters: key: +++: Zone of inhibition >2.0 cm in diameter produced.; ++: Zone of inhibition >1.5 cm in diameter produced.; +: Zone of inhibition >1.0 cm in diameter produced.; −: No zone detected; settings: pure synthesised peptide
[9] = system: Lactobacillus bulgaricus ATCC11842 DPC5383; test: agar well diffusion assay, L. bulgaricus DPC5383; type: cell-based; parameters: key: +++: Zone of inhibition >2.0 cm in diameter produced.; ++: Zone of inhibition >1.5 cm in diameter produced.; +: Zone of inhibition >1.0 cm in diameter produced.; −: No zone detected; settings: pure synthesised peptide
[10] = system: Streptococcus mutans DPC4069; test: agar well diffusion assay, S. mutans DPC4069; type: cell-based; parameters: key: +++: Zone of inhibition >2.0 cm in diameter produced.; ++: Zone of inhibition >1.5 cm in diameter produced.; +: Zone of inhibition >1.0 cm in diameter produced.; −: No zone detected; settings: pure synthesised peptide
[11] = system: E. coli DPC6053; test: susceptibility to proteinase K, agar well diffusion assay; type: cell-based, Escherichia coli; settings: proteinase K 2050 U/ml, 1:1 volume ratio, 4° C., 6 h
Method: Plates were incubated at 37° C. for 24 h. The positive controls used were the peptides isracidin (Peptide Protein Research Ltd.) and Cecropin P1 (Sigma TM).

[12] = system: lactobacilli and other Gram-positive bacteria; settings: Floris et al. 2003; cited from earlier work
[13] = system: S. aureus, Streptococcus pyogenes and L. monocytogenes; settings: doses as low as; cited from earlier work

Compound | zone of inhibition (inhibitory spectrum) [2] | concentration at which the indicator organism was inhibited ([2]; E. coli DPC6053) | zone of inhibition (inhibitory spectrum) [3] | zone of inhibition (inhibitory spectrum) [4] | zone of inhibition (inhibitory spectrum) [5] | zone of inhibition (inhibitory spectrum) [6] | zone of inhibition (inhibitory spectrum) [7] | zone of inhibition (inhibitory spectrum) [8] | zone of inhibition (inhibitory spectrum) [9] | zone of inhibition (inhibitory spectrum) [10] | minimum inhibitory concentration (MIC) [1] | antimicrobial activity after treatment with proteinase K [11] | also measured
CC[C@H](C)[C@H](NC(=O)CNC(=O)[C@H](CCC(=O)O)NC(=O)[C@H](CO)NC(=O)[C@@H](NC(=O)[C@H](CCCNC(=N)N)NC(=O)[C@H](CCCCN)NC(=O)[C@H](CCCCN)NC(=O)[C@H](C)NC(=O)[C@H](CO)NC(=O)[C@H](CC(N)=O)NC(=O)[C@H](CCC(=O)O)NC(=O)[C@H](CC(C)C)NC(=O)[C@H](CCCCN)NC(=O)[C@H](CCCCN)NC(=O)[C@H](C)NC(=O)[C@@H](NC(=O)[C@H](CCCCN)NC(=O)[C@H](CO)NC(=O)[C@H](CC(C)C)NC(=O)[C@H](Cc1c[nH]c2ccccc12)NC(=O)[C@@H](N)CO)[C@@H](C)O)[C@@H](C)CC)C(=O)N[C@@H](C)C(=O)N[C@H](C(=O)N[C@@H](C)C(=O)N[C@H](C(=O)N[C@@H](CCC(N)=O)C(=O)NCC(=O)NCC(=O)N1CCC[C@H]1C(=O)N[C@@H](CCCNC(=N)N)C(=O)O)[C@@H](C)CC)[C@@H](C)CC [Cecropin P1] (H-SWLSKTAKKLENSAKKRISEGIAIAIQGGPR-OH) |  |  |  |  |  |  |  |  |  |  |  |  | MIC of commercially available control peptides ([1]; strain not given): 50 µM
CC[C@H](C)[C@H](N)C(=O)N[C@@H](CCCCN)C(=O)N[C@@H](Cc1c[nH]cn1)C(=O)N[C@@H](CCC(N)=O)C(=O)NCC(=O)N[C@@H](CC(C)C)C(=O)N1CCC[C@H]1C(=O)N[C@@H](CCC(N)=O)C(=O)N[C@@H](CCC(=O)O)C(=O)O [SEQ ID NO: 1] (H-IKHQGLPQE-OH; N-terminus and C-terminus assumed) | +++ (Zone of inhibition >2.0 cm in diameter produced.) | 0.05 mM | +++ (Zone of inhibition >2.0 cm in diameter produced.) | +++ (Zone of inhibition >2.0 cm in diameter produced.) | +++ (Zone of inhibition >2.0 cm in diameter produced.) | +++ (Zone of inhibition >2.0 cm in diameter produced.) | ++ (Zone of inhibition >1.5 cm in diameter produced.) | − | +++ (Zone of inhibition >2.0 cm in diameter produced.) | ++ (Zone of inhibition >1.5 cm in diameter produced.) | 78 µM (≈ 81.8 µg/mL) | lose their antibacterial activity | concentration at which inhibition was shown ([3]; agar well-diffusion assay, E. coli DPC6054 (O157:H7 derivative)): 0.05 mM; concentration at which inhibition was shown ([4]; agar well-diffusion assay, E. coli DPC6055 (O157:H7 derivative)): 0.05 mM; concentration at which inhibition was shown ([5]; agar well-diffusion assay, E. sakazakii 5920 (ATCC12868)): 0.05 mM
CC(C)C[C@H](NC(=O)[C@H](CC(C)C)NC(=O)[C@H](CC(N)=O)NC(=O)[C@H](CCC(=O)O)NC(=O)[C@H](CC(N)=O)NC(=O)[C@H](CC(C)C)NC(=O)[C@@H](N)C(C)C)C(=O)N[C@@H](CCCNC(=N)N)C(=O)O [SEQ ID NO: 3] (H-VLNENLLR-OH; N-terminus and C-terminus assumed) | +++ (Zone of inhibition >2.0 cm in diameter produced.) | 0.22 mM | +++ (Zone of inhibition >2.0 cm in diameter produced.) | +++ (Zone of inhibition >2.0 cm in diameter produced.) | +++ (Zone of inhibition >2.0 cm in diameter produced.) | +++ (Zone of inhibition >2.0 cm in diameter produced.) | ++ (Zone of inhibition >1.5 cm in diameter produced.) | − | +++ (Zone of inhibition >2.0 cm in diameter produced.) | ++ (Zone of inhibition >1.5 cm in diameter produced.) | 220 µM (≈ 213 µg/mL) | lose their antibacterial activity | concentration at which inhibition was shown ([6]; agar well-diffusion assay, E. sakazakii DPC6091): 0.22 mM
CC[C@H](C)[C@H](NC(=O)[C@@H]1CCCN1C(=O)[C@H](Cc1cnc[nH]1)NC(=O)[C@H](CCCCN)NC(=O)[C@@H]1CCCN1C(=O)[C@@H](N)CCCNC(=N)N)C(=O)N[C@@H](CCCCN)C(=O)N[C@@H](Cc1cnc[nH]1)C(=O)N[C@@H](CCC(N)=O)C(=O)NCC(=O)N[C@@H](CC(C)C)C(=O)N1CCC[C@H]1C(=O)N[C@@H](CCC(N)=O)C(=O)N[C@@H](CCC(=O)O)C(=O)N[C@H](C(=O)N[C@@H](CC(C)C)C(=O)N[C@@H](CC(N)=O)C(=O)N[C@@H](CCC(=O)O)C(=O)N[C@@H](CC(N)=O)C(=O)N[C@@H](CC(C)C)C(=O)N[C@@H](CC(C)C)C(=O)N[C@@H](CCCNC(=N)N)C(=O)N[C@@H](Cc1ccccc1)C(=O)O)C(C)C [isracidin, Isracidin] (H-RPKHPIKHQGLPQEVLNENLLRF-OH) |  |  |  |  |  |  |  |  |  |  | 50 µM and 59 µM |  | concentration inhibiting in vitro growth [12]: 0.1 to 1 mg/mL; dose with strong protective effect [13]: 10 μg per mouse
SDIPNPIGSENSEK (Strain DPC6026; listed as Lactobacillus acidophilus) [SEQ ID NO: 2, peptide of bovine αs1-casein f(183-207), found in fraction A1-49, chemically synthesised] | − |  | − | − | − | − | + (Zone of inhibition >1.0 cm in diameter produced.) | − | − | − |  | lose their antibacterial activity | inhibitory / antimicrobial activity (in words) ([2]; E. coli DPC6053, crude fermentates: 96-well plate assay or well diffusion assay): no activity; inhibitory / antimicrobial activity (in words) ([7]; crude fermentates: 96-well plate assay or well diffusion assay): some inhibitory activity
